In patent US6395719B1, “Methods for increasing levels of acetylcholine” (Eli Lilly and Company, priority 1998, dated 2002):

Experiments:
[1] = test system: choline acetyltransferase (ChAT); test: ChAT activity in hippocampus and frontal cortex homogenates of ovariectomized rats, radio-labelled assay of acetylcholine bio-synthesis; assay type: in vivo, female Sprague-Dawley rats; conditions: daily s.c. or oral gavage for 3 or 10 days, raloxifene HCl 3 mg/kg/day, estradiol benzoate 0.03 or 0.3 mg/kg/day; for levels of ChAT, difference from the sham controls: OVX rats
Method: Forty female Sprague-Dawley rats (weight range of 300 to 325 g, six months old) are obtained from Harlan. The animals are either bilaterally ovariectomized (OVX) or exposed to a Sham surgical procedure, and then shipped after two weeks. Upon arrival, they are housed in metal hanging cages in groups of 3 or 4 per cage and have ad libitum access to food and water for one week. Room temperature is maintained at 22.2°±1.70° C. with a minimum relative humidity of 40%. The photoperiod in the room is 12 hours light and 12 hours dark.
The animals are dosed daily by subcutaneous injection or oral gavage with either raloxifene hydrochloride, at 3 mg/kg/day in a vehicle containing 10% cyclodextrin, estradiol benzoate at 0.03 or 0.3 mg/kg/day, or vehicle control. Animals were treated for 3 or 10 days. There are twenty animals per each dosing regimen. At the appropriate time intervals, the animals are sacrificed and their brains dissected. The particular portions of the brains are homogenized and assayed. Homogenates from the hippocampus and frontal cortex were processed and determination of ChAT activity was made by a radio-labelled assay of the bio-synthesis of acetylcholine. This procedure may be found in Schoepp et al., J. Neural Transmiss., 78:183-193, 1989, the teachings of which are incorporated by reference.

[2] = test system: Alzheimer's disease; test: Amelioration of Alzheimer's disease in post-menopausal women on chronic administration; assay type: in vivo, human; conditions: post-menopausal women with Alzheimer's disease; 60 mg per day oral; after 2-12 months
Text: Thus, the current invention provides methods for the treatment and prophylaxis of syndromes related to the loss of memory, learning, and cognitive function, often seen in women who are estrogen deprived, especially post-menopausal women. An example of such a syndrome is senile dementia of the Alzheimer's type. Beneficial effects, such as a decrease in memory loss, associated with administration of a compound of this invention become apparent after chronic administration.

[3] = test system: cognitive and memory functions; test: Prophylactic use: cognitive and memory function by standard tests in peri- or post-menopausal women; assay type: in vivo, human; conditions: 60 mg/day oral for 1-5 years
Method: The methods of the present invention may also be employed in a prophylactic modality. For example, a group of peri- or post-menopausal women may have their cognitive and memory function evaluated by standard tests. Following the establishment of this baseline, the women are administered raloxifene hydrochloride at 60 mg/day, via the oral route, for a period 1-5 years.

SMILES: C[C@]12CC[C@@H]3c4ccc(OC(=O)c5ccccc5)cc4CC[C@H]3[C@@H]1CC[C@@H]2O [estradiol benzoate, reference compound]
- levels of ChAT, difference from the sham controls [1]: insignificant difference
- levels of ChAT versus the OVX controls [1]: significantly (p<0.05) increased

SMILES: Cl.O=C(c1ccc(OCCN2CCCCC2)cc1)c1c(-c2ccc(O)cc2)sc2cc(O)ccc12 [raloxifene hydrochloride, [2-(4-hydroxyphenyl)-6-hydroxybenzo[b]thien-3-yl][4-[2-(1-piperidinyl)ethoxy]phenyl]methanone hydrochloride]
- effect on Alzheimer's disease [2]: amelioration of their disease
- levels of ChAT, difference from the sham controls [1]: insignificant difference
- levels of ChAT versus the OVX controls [1]: significantly (p<0.05) increased
- loss of cognitive and memory functions relative to placebo [3]: decrease in loss of these functions
